Values joined by “and” are separate entries in the source; they are usually repeats but may differ in a detail not shown here. Equal values may be shown once.
Tests used:
[1] = test system: PfCRT variant E207Q; assay: CQ uptake assay, oocytes expressing E207Q; assay type: cell-based, Plasmodium falciparum
Protocol: (§1) Site-directed mutagenesis of PfCRT^Dd2 was performed as described using the megaprimer method with overlap extension[21],[54]. The primer pairs used are listed in Supplementary Table 6. Please note that a codon-optimized and oocyte-adapted version of PfCRT^Dd2 was used[22] (Supplementary Fig. 16). The resulting DNA fragment was cloned into the SP64T expression vector and verified by sequencing.
(§2) Oocytes were obtained as described previously. Briefly, adult (>2 years old) female X. laevis frogs (NASCO) were anesthetized in a cooled solution of ethyl 3-amino benzoate methanesulfonate (0.1%, w/v), followed by a surgical removal of parts of the ovary. The ovary lobes were carefully dissected and small pieces of oocytes were incubated in Ca^2+-free ND96 buffer (96 mM NaCl, 2 mM KCl, 1 mM MgCl2 buffered with 5 mM HEPES/NaOH, pH 7.5) supplemented with collagenase D (0.1%, w/v; Roche), BSA (0.5%, w/v), and 9 mm Na2HPO4 at 18 °C for 14-16 h while gentle shaking. After incubation, the oocytes were carefully washed several times with ND96 buffer (96 mM NaCl, 2 mM KCl, 1.8 mM CaCl2, 1 mM MgCl2 buffered with 5 mM HEPES/NaOH, pH 7.5) supplemented with 100 mg l^−1 gentamycin). Defolliculated and healthy-looking stage V-VI oocytes were manually selected for RNA microinjection. The RNA was generated as following: The codon-optimized sequences of PfCRT variants were cloned into the pSP64T expression vector. After vector linearization using the restriction endonucleases BamHI or SalI (New England Biolabs), transcription was performed using the in vitro SP6 mMessage mMachine Kit (Ambion)[34]. The obtained RNA was kept at −80 °C and diluted with nuclease-free water to a concentration of 0.6 μg μl^−1. Precision-bore glass capillary tubes (3.5-inch glass capillaries; Drummond Scientific Co.) were pulled on a vertical puller (P-87 Flaming/Brown micropipette puller, Sutter Instrument Co.), graduated, and placed on a microinjector (Nanoject II Auto-Nanoliter Injector, Drummond Scientific Co.). 50 nl of nuclease-free water alone (control oocytes) or 50 nl of 0.6 μg μl^−1 RNA were injected under stereomicroscopic control. Injected oocytes were incubated for 46–72 h at 18 °C with twice-daily buffer changes before usage in experiments.
Drug uptake assays were performed as described previously[21],[22],[24],[34]. […] The direction of radio-labeled drug transport is here from the mostly acidic extracellular solution (pH 4.5 or 6.0, as indicated) into the oocyte cytosol (pH ∼ 7.2), which corresponds to the efflux of drug from the acidic digestive vacuole (pH 5.2) into the parasite cytoplasm (pH 7.2). The topology of PfCRT in the oolemma is such that both the N- and C-terminus face the extracellular milieu[3],[22]. In the parasite, the N- and C-terminus face the lumen of the digestive vacuole. […] For determination of the amount of drug uptake for each oocyte, the reaction medium was removed and the oocytes were washed three times with 2 ml of ice-cold ND96 buffer. Each oocyte was individually transferred to a scintillation vial containing 5% sodium dodecyl sulfate (200 μl) for lysis. […] Oocytes that were injected with water instead of RNA were analyzed in parallel, representing the uptake of a drug by diffusion and/or endogenous permeation pathways. […] The specific PfCRT-mediated uptake was determined by subtracting the corresponding background value measured in water-injected oocytes from that of PfCRT-expressing oocytes. […]

[2] = test system: PfCRT variant E207K/K80E; assay: CQ uptake assay, oocytes expressing E207K/K80E; assay type: cell-based, Plasmodium falciparum
Protocol: as §1, §2
Drug uptake assays were performed as described previously[21],[22],[24],[34]. […] The radioactivity of each sample was measured using a liquid scintillation analyzer Tri-Carb 4910 TR (PerkinElmer). Oocytes that were injected with water instead of RNA were analyzed in parallel, representing the uptake of a drug by diffusion and/or endogenous permeation pathways. […]

[3] = E207K/K80E, 50 µM CQ, 1 h, mean ± SEM

With `CCN(CC)CCCC(C)Nc1ccnc2cc(Cl)ccc12` (stereo not drawn) [CQ, chloroquine] the “Activity at pH 4.5” value ([1]; E207Q, 50 µM CQ, 1 h, mean ± SEM) was 2.15 ± 0.52 pmol h-1 oocyte-1, the R-value ([1]; E207Q, CQ transport at pH 4.5 / pH 6.0) was 0.88 ± 0.01 and the “E207Q transport activity pH 4.5” value ([1]; pH 4.5, individual replicates, Fig 6b) was 1.41 pmol oocyte-1 h-1 and 3.42 pmol oocyte-1 h-1 and 1.62 pmol oocyte-1 h-1. The “E207Q transport activity pH 6.0” value ([1]; pH 6.0, individual replicates, Fig 6b) was 1.59 pmol oocyte-1 h-1 and 3.69 pmol oocyte-1 h-1 and 1.95 pmol oocyte-1 h-1, the “E207Q R-value” ([1]; ratio of activity pH 4.5 / pH 6.0) was 0.89 and 0.93 and 0.83 and the “Activity at pH 4.5” value [2, 3] was 1.85 ± 0.84 pmol h-1 oocyte-1. The “Activity at pH 6.0” value [2, 3] was 4.75 ± 0.91 pmol h-1 oocyte-1, the “E207K/K80E transport activity pH 4.5” value ([2]; pH 4.5, individual replicates (Fig 6a)) was 3.47 pmol oocyte-1 h-1 and 1.46 pmol oocyte-1 h-1 and 0.63 pmol oocyte-1 h-1 and the “E207K/K80E transport activity pH 6.0” value ([2]; pH 6.0, individual replicates (Fig 6a)) was 6.4 pmol oocyte-1 h-1 and 4.59 pmol oocyte-1 h-1 and 3.25 pmol oocyte-1 h-1.
